Reference: patent publication US20260234211A1, “POLYPEPTIDE HAVING MODIFIED STRUCTURE AND USE THEREOF” (Guangdong Raynovent Biotech Co., Ltd., priority 2023, published 2026)

Assays:
GLP-1R = biological target: T1, GLP-1R (Homo sapiens, UniProt P43220); assay: In vitro GLP-1R agonistic activity test (cAMP, HEK293 cell line); assay type: cell-based; settings: cAMP, HEK293 cells expressing GLP-1R; read-out: GLP-1 EC50
T1 construct: host or cells: HEK293
Experimental: (§1) The cell lines were constructed by Pharmaron Inc. See details in the table below.
(§2) The test compounds were diluted at a 5-fold dilution factor in 10 points, starting from an initial concentration of 200 nM.
(§3) 1) The cell lines were cultured respectively in complete medium at 37° C. and 5% CO2.
(§4) 1) Eu-cAMP tracer was freeze-thawed and diluted 50 fold with detection buffer; and Ulight-anti-cAMP was freeze-thawed and diluted 150 fold with detection buffer.
(§5) 3) 10 μL of Eu-cAMP tracer was added and then 10 μL of Uligh-anti-cAMP was added into experimental wells respectively.
(§6) 4) The reaction plate was centrifuged at 200 g at room temperature for 30 s and left for stand at 25° C. for 1 h.

GIPR = biological target: T2, GIPR (Homo sapiens, UniProt P48546); assay: In vitro GIPR agonistic activity test (cAMP, CHO cell line); assay type: cell-based; settings: CHO cells expressing GIPR, read-out: GIP-1 EC50
T2 construct: host or cells: CHO
T2 sequence (P48546 22-466): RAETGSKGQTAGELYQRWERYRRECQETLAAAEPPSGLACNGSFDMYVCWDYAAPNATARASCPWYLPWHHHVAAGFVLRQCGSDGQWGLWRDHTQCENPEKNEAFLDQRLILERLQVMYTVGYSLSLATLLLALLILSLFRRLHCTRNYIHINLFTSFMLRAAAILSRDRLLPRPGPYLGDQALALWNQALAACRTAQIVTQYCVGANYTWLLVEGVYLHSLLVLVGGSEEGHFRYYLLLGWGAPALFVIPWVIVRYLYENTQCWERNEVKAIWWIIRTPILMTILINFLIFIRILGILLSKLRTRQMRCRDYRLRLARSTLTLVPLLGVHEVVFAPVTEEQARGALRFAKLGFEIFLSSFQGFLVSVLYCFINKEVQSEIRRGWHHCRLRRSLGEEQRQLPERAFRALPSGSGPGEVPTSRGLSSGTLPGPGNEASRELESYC
Experimental: as §1, §2, §3, §4, §5, §6

GCGR = biological target: T3, GCGR (Homo sapiens, UniProt P47871); assay: In vitro GCGR agonistic activity test (cAMP, HEK293 cell line); assay type: cell-based; settings: cAMP, HEK293 cells expressing GCGR; read-out: GCG EC50
T3 construct: host or cells: HEK293
T3 sequence (P47871 26-477, species assumed): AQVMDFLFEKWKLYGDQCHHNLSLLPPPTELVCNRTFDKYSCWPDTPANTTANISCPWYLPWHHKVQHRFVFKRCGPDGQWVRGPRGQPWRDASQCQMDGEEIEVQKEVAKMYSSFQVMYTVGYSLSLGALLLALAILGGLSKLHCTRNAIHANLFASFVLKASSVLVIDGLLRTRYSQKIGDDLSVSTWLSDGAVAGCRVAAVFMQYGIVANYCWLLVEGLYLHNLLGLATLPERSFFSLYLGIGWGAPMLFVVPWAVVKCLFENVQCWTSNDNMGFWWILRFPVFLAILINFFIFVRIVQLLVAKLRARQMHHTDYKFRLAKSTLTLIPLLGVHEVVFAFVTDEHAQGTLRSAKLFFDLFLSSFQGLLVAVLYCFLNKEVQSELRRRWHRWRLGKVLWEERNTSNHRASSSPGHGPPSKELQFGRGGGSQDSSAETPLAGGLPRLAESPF
Experimental: as §1, §2, §3
2) After digestion with TrypLE, the cells were re-suspended in experimental buffer respectively, and inoculated in a CulturPlate-384 cell culture plate at a density of 2000 cells/well and at a volume of 15 μL/well.
as §4
2) 5 μL of the test compounds were added respectively into experimental wells of the CulturPlate-384 cell culture plate, which was centrifuged at 200 g for 30 s, and left for stand at 37° C. for 30 min.
as §5, §6
5) Envision 2105 was used to collect data, with excitation light at 340 nm and emission light at 665 nm and 615 nm.

[1] = Pharmacokinetic properties in Cynomolgus macaques; settings: cynomolgus monkey, in vivo
Procedure, shortened: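 Non-juvenile male cynomolgus macaques were used, three per compound. Plasma was sampled from 1 h to 240 h after administration. Drug levels were quantified by LC-MS/MS and pharmacokinetic parameters calculated from the concentration–time data.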

[2] = Metabolic stability in human kidney S9; assay type: in vitro ADME; settings: human, s9
Procedure, shortened: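 Human kidney S9 (1 mg/mL final) with NADPH and UDPGA cofactors, test compound at 1 μM final, incubated at 37°C. Aliquots quenched with acetonitrile at 0.5, 5, 15, 30 and 60 min; LC-MS/MS peak areas used to derive depletion slopes.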

DIO obesity mouse model = assay: Pharmacodynamics in DIO obesity mouse model; assay type: in vivo; settings: DIO mice
Text: Experimental purpose: To evaluate the effects of multiple administration of the test substance (compound) on body weight and glucolipid metabolism.
In this experiment, mice were used as test animals, which were induced with a high-fat diet (Research Diets: D12492) from 4-5 weeks old for 8 weeks, and the animals were grouped according to their body weights and fasting blood glucose levels, with the average body weight of the model animals being 47.2±0.3 g, the average body weight of the control animals being 27.9±0.3 g, the average fasting blood glucose of the model animals being 8.8±0.2 mmol/L, and the average fasting blood glucose of the control animals being 6.0±0.2 mmol/L. There were six animals in each group. The animals were administered immediately after grouping and were administered by subcutaneous injection every 3 days for 22 consecutive days. Both the normal control and model groups were given with vehicle (20 mM citrate buffer). Body weight and food intake were measured twice a week. Fasting blood glucose was tested on Days 10 and 20, OGTT test was performed on Day 20, and blood was collected on Day 23 to test the liver function indicators (ALT, AST, ALP) and serum lipid metabolism indicators (TC, TG, HDL, LDL). Liver tissues were taken to calculate organ indexes, and liver lipid metabolism indicators (hepatic TC, TG) were detected. The liver tissues were examined pathologically (HE, Oil Red) to evaluate the effects of the test substances on body weight and glucolipid metabolism in a high-fat diet-induced obesity mouse model.
The experimental data of each group of animals was described as mean±standard error (X±SEM). P<0.05 indicated the statistically significant difference. All statistical analysis was completed using Graphpad 8.0 software.

T1 sequence (P43220 24-463, species assumed): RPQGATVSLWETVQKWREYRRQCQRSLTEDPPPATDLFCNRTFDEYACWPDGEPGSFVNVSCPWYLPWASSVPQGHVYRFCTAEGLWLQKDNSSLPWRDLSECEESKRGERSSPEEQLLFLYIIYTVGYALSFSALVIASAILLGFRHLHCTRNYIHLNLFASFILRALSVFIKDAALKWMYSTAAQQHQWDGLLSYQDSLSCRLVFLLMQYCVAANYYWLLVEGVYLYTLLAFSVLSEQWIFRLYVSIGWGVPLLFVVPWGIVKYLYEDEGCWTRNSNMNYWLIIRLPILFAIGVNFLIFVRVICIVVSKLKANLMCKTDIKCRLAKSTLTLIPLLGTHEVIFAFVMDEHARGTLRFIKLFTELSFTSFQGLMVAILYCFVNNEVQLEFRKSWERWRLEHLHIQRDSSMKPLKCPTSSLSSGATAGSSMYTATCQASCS

Compound `CC[C@H](C)[C@H](NC(=O)[C@H](Cc1ccccc1)NC(=O)[C@H](C)NC(=O)C(C)(C)NC(=O)[C@H](CCC(N)=O)NC(=O)[C@H](C)NC(=O)[C@H](CCCCNC(=O)COCCOCCNC(=O)CC[C@H](NC(=O)CCCCCCCCCCCCCCCCCCC(=O)O)C(=O)O)NC(=O)[C@H](CCCCN)NC(=O)[C@H](CC(=O)O)NC(=O)[C@H](CC(C)C)NC(=O)[C@](C)(CC(C)C)NC(=O)[C@@H](NC(=O)[C@H](CO)NC(=O)[C@H](Cc1ccc(O)cc1)NC(=O)[C@H](CC(=O)O)NC(=O)[C@H](CO)NC(=O)[C@@H](NC(=O)[C@H](Cc1ccccc1)NC(=O)[C@@H](NC(=O)CNC(=O)[C@H](CCC(N)=O)NC(=O)C(C)(C)NC(=O)[C@@H](N)Cc1ccc(O)cc1)[C@@H](C)O)[C@@H](C)O)[C@@H](C)CC)C(=O)N[C@@H](CCC(=O)O)C(=O)N[C@@H](Cc1ccc(O)cc1)C(=O)N[C@@H](CC(C)C)C(=O)N[C@@H](CC(C)C)C(=O)N[C@@H](CCC(=O)O)C(=O)NCC(=O)NCC(=O)N1CCC[C@H]1C(=O)N[C@@H](CO)C(=O)N[C@@H](CO)C(=O)NCC(=O)N[C@@H](C)C(=O)N1CCC[C@H]1C(=O)N1CCC[C@H]1C(=O)N1CCC[C@H]1C(=O)N[C@@H](CO)C(N)=O` [LY3437943, reference compound] has an EC50 (GLP-1R) of 0.014 nM, an EC50 (GIPR) of 0.001 nM and an EC50 (GCGR) of 0.031 nM. It also gave an AUC(0-inf) [1] of 2.93 µM·h, an AUC(0-t) [1] of 2.7 µM·h and a Cmax [1] of 22.1 nM. The Tmax [1] was 29.3 h, the half-life [1] was 58.8 h and the half-life [2] was over 3.08 h. The microsomal CLint [2] was under 3.75 µL/min/mg, the Liver-body ratio (DIO obesity mouse model; 10 nmol/kg subcutaneous every 3 days) was 0.032 ± 0.003 g/g and the “Change rate of body weight on Day 22” value (DIO obesity mouse model; 10 nmol/kg subcutaneous every 3 days, first experiment) was −29.19 ± 2.94%. For the same compound, the “Change rate of body weight on Day 22” value (DIO obesity mouse model; 10 nmol/kg, second experiment with similar protocol) was −26.32 ± 1.91%, the “Fasting blood glucose, Day 0” value (DIO obesity mouse model; Day 0 (at grouping), 10 nmol/kg group) was 8.2 ± 0.3 mmol/L and the “Fasting blood glucose, Day 10” value (DIO obesity mouse model; Day 10, 10 nmol/kg subcutaneous every 3 days) was 5.2 ± 0.9 mmol/L. For the same compound, the “Fasting blood glucose, Day 20” value (DIO obesity mouse model; Day 20, 10 nmol/kg subcutaneous every 3 days) was 6.2 ± 0.4 mmol/L.
